Source: ChEMBL document CHEMBL1201862, “PubChem BioAssay data set” (2004)
The source made the active and inactive calls. Where a SMILES comes first, the peptide text is derived from it. [ ]: non-standard residue; d: D form. The star is where a group is joined. ξ: configuration not given here. ξNMe2Val = CC(C)C(C(=O)*)N(C)C; NMeV = CN[CH](C(=O)O)C(C)C; NHBn = c1ccc(CN*)cc1

Columns and labels:
[1] = biological target: Beta-galactosidase (Escherichia coli, UniProt Q8VNN2); assay: Dose response counterscreen for EBI2 assay utilizing the enzyme, b-galactosidase.; format: functional
Beta-galactosidase, sequence (Q8VNN2 whole entry): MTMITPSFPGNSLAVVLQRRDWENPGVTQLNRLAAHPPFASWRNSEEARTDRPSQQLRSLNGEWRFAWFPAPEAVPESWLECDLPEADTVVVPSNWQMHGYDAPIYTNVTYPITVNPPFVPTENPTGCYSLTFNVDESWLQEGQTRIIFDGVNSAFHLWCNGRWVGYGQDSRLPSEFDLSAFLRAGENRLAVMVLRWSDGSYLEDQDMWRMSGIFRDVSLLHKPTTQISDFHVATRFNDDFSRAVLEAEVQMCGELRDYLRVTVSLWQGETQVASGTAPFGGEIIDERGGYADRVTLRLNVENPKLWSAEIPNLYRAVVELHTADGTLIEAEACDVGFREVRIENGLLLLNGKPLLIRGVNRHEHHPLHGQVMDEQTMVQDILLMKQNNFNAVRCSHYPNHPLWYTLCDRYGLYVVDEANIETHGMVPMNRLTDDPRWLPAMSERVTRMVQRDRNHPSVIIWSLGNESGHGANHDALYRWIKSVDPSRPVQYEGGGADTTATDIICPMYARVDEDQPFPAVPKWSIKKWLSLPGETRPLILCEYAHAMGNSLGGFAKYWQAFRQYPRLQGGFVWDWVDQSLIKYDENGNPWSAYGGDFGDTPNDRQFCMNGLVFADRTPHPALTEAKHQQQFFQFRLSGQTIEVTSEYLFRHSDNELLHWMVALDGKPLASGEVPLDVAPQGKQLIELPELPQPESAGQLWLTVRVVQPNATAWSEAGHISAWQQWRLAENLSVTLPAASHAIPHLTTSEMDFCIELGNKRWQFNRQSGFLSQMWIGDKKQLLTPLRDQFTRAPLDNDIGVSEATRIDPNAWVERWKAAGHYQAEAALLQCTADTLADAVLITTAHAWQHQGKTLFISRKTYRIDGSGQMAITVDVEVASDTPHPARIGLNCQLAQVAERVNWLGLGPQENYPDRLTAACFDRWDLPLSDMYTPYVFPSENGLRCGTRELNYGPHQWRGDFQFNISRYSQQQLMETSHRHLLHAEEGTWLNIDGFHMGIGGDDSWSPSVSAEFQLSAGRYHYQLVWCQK

[2] = HGIII-sPLA2 enzyme inhibition potency – biochemical, QFRET, IC50, dose response (AID 743457);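 note: green fluorescence rise as the enzyme cleaves BODIPY PC-A2 in liposomes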
[3] = biological target: T1, Caspase-6 (Homo sapiens, UniProt P55212); assay: inhibition of CASP6 peptide cleavage – biochemical, VEID-R110 fluorescence, cherry-pick, dose response (AID 720632)
T1 sequence (P55212 whole entry): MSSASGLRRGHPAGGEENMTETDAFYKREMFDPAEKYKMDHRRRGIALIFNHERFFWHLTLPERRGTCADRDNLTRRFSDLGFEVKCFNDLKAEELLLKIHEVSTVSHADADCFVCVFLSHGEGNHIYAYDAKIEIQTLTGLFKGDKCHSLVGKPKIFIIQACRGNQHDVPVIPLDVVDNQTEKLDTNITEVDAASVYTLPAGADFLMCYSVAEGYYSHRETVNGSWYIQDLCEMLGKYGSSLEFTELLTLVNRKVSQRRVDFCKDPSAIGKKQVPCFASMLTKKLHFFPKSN

[4] = biological target: T2, Nuclear receptor subfamily 0 group B member 1 (Homo sapiens, UniProt P51843); format: functional, cell-based;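 note: HEK293T cells transfected with SF-1 and DAX-1 plus StAR promoter luciferase reporter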
T2 sequence (P51843 whole entry): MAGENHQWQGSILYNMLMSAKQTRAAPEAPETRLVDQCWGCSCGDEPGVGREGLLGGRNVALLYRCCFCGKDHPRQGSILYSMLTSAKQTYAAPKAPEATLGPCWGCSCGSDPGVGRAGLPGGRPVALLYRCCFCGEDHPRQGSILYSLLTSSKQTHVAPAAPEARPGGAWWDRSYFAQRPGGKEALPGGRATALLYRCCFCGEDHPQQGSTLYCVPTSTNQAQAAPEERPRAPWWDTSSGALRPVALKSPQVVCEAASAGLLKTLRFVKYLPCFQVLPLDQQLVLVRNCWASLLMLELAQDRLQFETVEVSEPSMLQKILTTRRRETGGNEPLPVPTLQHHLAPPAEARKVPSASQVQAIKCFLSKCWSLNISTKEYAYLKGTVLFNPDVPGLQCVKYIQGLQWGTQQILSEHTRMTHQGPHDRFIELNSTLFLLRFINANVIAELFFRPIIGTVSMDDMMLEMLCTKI

[5] = cells; format: functional, cell-based
[6] = biological target: FAD-linked sulfhydryl oxidase ALR (Homo sapiens, UniProt P55789); assay: ALR-catalysed DTT oxidation blockers – biochemical, H2O2 detection, luminescence, cherry-pick, dose response (AID 493248)
FAD-linked sulfhydryl oxidase ALR, sequence (P55789 whole entry): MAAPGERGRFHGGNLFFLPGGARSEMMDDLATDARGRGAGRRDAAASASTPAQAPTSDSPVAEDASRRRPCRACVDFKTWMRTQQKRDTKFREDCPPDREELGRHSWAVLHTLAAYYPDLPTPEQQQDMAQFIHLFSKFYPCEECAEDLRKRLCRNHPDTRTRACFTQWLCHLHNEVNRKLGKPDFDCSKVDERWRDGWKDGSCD

[7] = biological target: T3, Long-chain-fatty-acid--AMP ligase FadD28 (Mycobacterium tuberculosis, UniProt P9WQ59); assay: Fluorescence polarization aasay to screen for inhibitors that compete for the binding of FadD28 to a bisubstrate Measured in Biochemical System Using Plate Reader - 2147-01_Inhibitor_Dose_CherryPick_Activity.; format: functional, Mycobacterium tuberculosis H37Rv
T3 sequence (P9WQ59 whole entry): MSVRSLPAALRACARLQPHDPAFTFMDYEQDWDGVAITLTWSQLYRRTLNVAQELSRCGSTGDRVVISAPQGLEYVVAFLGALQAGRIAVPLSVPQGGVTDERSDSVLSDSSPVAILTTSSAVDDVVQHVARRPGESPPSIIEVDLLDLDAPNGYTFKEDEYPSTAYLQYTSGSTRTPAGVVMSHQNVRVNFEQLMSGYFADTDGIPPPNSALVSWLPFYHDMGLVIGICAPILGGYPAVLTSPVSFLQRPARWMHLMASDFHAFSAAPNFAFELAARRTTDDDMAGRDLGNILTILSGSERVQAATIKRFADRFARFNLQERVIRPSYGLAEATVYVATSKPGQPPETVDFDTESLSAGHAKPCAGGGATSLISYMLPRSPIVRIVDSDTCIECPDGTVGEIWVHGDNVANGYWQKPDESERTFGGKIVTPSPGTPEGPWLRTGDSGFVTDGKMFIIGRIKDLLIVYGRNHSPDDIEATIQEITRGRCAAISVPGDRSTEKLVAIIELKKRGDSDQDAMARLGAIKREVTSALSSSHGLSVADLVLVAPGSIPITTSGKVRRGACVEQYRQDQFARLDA

[8] = biological target: Genome polyprotein (dengue virus type 2, UniProt P29990); assay: flavivirus cap methylation enzyme inhibition – biochemical, confirmation dose response, primary screen (AID 588689); format: functional
Genome polyprotein, sequence (P29990 2492-3391 limits assumed): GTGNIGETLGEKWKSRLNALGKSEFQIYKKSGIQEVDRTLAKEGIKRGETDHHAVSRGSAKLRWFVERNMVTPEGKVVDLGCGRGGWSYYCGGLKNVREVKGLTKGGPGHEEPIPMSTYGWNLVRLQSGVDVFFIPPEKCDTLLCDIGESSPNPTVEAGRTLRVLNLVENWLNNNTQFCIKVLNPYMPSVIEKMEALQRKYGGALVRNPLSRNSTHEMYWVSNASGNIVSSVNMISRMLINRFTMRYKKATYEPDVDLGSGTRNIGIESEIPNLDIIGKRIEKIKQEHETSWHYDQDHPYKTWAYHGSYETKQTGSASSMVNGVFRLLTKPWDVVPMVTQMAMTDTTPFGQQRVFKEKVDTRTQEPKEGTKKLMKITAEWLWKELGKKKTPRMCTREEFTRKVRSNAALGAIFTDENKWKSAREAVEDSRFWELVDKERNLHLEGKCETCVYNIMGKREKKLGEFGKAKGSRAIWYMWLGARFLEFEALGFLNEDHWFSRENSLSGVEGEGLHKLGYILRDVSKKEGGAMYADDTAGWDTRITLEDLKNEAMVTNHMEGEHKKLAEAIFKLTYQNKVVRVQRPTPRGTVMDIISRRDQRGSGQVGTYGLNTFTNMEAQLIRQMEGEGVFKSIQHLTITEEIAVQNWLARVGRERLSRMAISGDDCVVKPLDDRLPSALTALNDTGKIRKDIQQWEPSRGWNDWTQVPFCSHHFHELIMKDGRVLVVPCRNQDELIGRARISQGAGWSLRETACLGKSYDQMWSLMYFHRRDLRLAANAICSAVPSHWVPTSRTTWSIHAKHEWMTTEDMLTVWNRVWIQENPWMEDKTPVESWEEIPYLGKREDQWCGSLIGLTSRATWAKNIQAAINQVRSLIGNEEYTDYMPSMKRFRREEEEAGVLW

[9] = inhibition of ADAM10 peptide cleavage – biochemical, FRET peptide substrate, recombinant human ADAM10, selectivity assay for ADAM17 exosite inhibitor project, dose response (AID 743259);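 note: ADAM10 enzyme cleaving a FRET peptide substrate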
[10] = potency of ADAM10 substrate cleavage blockers – biochemical, QFRET, dose response (AID 743254);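 note: ADAM10 enzyme with the DM2 quenched FRET peptide as substrate; EDANS fluorescence gain as the protease cuts the substrate; inhibitor potency against ADAM10 proteolytic activity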
[11] = biological target: T4, Disintegrin and metalloproteinase domain-containing protein 17 (Homo sapiens, UniProt P78536); assay: inhibition of ADAM17 substrate cleavage – biochemical, quenched FRET substrate, counter-screen for ADAM10 exosite inhibitor project, dose response (AID 743253)
T4 sequence (P78536 whole entry, the tested form may be a part): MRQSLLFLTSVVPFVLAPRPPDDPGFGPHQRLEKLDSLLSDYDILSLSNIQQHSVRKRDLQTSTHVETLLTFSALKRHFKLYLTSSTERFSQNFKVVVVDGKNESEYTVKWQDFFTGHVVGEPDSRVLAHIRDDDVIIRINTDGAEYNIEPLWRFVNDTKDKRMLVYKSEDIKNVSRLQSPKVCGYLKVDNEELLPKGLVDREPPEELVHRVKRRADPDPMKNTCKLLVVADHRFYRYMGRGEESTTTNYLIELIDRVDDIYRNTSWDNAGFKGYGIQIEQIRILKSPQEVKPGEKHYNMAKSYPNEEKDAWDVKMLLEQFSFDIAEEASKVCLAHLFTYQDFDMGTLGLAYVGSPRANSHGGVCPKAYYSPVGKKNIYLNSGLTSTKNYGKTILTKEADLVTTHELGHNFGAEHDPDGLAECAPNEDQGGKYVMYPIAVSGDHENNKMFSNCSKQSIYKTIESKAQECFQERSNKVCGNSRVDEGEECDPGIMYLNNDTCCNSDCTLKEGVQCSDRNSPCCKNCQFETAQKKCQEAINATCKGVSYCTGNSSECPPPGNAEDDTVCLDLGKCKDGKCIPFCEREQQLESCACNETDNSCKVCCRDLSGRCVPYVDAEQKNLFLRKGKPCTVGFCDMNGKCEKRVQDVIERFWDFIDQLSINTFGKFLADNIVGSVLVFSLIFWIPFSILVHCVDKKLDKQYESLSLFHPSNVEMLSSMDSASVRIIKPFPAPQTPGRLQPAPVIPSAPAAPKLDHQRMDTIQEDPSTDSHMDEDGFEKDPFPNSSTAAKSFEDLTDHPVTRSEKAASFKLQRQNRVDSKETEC

[12] = biological target: T4, Disintegrin and metalloproteinase domain-containing protein 17; assay: exosite inhibitors of ADAM17, dose response, biochemical (AID 743260)
[13] = biological target: T5, Hepatocyte nuclear factor 4-alpha (Homo sapiens, UniProt P41235); format: functional, cell-based;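 note: biochemical luminescence-based dose-response counterscreen measuring inhibition of HNF4 dimerization, run alongside a screen for blockers of ABHD5–perilipin-5 interaction; split luciferase complementation of HNF4 fusion proteins in cell lysate measuring dimerization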
T5 sequence (P41235 whole entry): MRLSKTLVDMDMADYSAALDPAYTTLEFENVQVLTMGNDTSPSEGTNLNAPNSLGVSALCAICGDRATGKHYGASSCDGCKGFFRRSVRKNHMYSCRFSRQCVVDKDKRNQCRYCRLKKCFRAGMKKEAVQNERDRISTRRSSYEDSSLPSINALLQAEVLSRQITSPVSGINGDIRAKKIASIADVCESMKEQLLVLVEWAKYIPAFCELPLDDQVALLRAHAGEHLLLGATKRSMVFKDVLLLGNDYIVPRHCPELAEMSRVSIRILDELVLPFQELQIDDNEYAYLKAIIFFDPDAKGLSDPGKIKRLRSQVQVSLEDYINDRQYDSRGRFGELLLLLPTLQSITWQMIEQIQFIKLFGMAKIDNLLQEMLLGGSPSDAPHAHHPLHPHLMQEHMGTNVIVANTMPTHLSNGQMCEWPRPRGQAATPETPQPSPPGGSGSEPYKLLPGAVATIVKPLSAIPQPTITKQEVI

[14] = biological target: T6, Sentrin-specific protease 1 (Homo sapiens, UniProt Q9P0U3); assay: SENP1 catalytic domain blockers, concentration series – biochemical, kinetic FRET, dose response (AID 651697); format: functional; details: read-out: IC50_Mean
T6 sequence (Q9P0U3 whole entry): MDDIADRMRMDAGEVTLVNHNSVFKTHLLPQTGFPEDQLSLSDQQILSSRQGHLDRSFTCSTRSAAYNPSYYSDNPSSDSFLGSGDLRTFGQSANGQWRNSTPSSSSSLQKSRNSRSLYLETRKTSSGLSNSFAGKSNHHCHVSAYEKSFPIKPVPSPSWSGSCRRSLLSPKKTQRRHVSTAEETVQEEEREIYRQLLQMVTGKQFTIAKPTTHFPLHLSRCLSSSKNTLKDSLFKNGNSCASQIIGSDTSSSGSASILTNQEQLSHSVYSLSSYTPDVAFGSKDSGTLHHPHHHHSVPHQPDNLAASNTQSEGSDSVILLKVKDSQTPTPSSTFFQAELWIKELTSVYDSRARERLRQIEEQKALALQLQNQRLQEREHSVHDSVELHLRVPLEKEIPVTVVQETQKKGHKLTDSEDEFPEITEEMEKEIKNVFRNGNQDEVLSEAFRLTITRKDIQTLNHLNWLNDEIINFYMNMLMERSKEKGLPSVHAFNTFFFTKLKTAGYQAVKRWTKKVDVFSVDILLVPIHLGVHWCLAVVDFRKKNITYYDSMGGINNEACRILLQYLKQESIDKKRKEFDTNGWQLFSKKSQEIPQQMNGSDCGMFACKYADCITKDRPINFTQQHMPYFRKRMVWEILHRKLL

[15] = biological target: T6, Sentrin-specific protease 1; assay: Dose response confirmation of small molecule inhibitors of the catalytic domain of the SUMO protease, SENP1 in a FRET assay.; format: functional; details: read-out: IC50_Mean
[16] = HIV-1 AD8 envelope cell-cell fusion blockers – cherry-pick, dose response (AID 652062); format: functional, cell-based;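 note: luciferase signal from cell-cell fusion driven by HIV-1 clade B AD8 Env; potency is for inhibitors of fusion seen as a drop in luminescence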
[17] = blockers of HIV-1 ZM109 envelope-driven cell-cell fusion – HeLa effector, CEM target cells, luciferase, cherry-pick, dose response (AID 652058); format: functional, cell-based;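 note: luciferase signal from HIV-1 Env mediated cell-cell fusion of effector and target cells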
[18] = blockers of HIV-1 envelope-mediated cell-cell fusion – cherry-pick, dose response (AID 652057); format: functional, cell-based
[19] = Counterscreen for inhibitors of Trypanosoma brucei methionyl tRNA synthetase (MetRS): Luminescence-based cell-based high throughput dose response assay to identify compounds that are cytotoxic to Jurkat human T lymphocyte cells.; format: functional
[20] = biological target: T7, Methionyl-tRNA synthetase, putative (Trypanosoma brucei brucei, UniProt Q38C91); format: functional, Trypanosoma brucei brucei strain 927/4 GUTat10.1
T7 sequence (Q38C91 whole entry): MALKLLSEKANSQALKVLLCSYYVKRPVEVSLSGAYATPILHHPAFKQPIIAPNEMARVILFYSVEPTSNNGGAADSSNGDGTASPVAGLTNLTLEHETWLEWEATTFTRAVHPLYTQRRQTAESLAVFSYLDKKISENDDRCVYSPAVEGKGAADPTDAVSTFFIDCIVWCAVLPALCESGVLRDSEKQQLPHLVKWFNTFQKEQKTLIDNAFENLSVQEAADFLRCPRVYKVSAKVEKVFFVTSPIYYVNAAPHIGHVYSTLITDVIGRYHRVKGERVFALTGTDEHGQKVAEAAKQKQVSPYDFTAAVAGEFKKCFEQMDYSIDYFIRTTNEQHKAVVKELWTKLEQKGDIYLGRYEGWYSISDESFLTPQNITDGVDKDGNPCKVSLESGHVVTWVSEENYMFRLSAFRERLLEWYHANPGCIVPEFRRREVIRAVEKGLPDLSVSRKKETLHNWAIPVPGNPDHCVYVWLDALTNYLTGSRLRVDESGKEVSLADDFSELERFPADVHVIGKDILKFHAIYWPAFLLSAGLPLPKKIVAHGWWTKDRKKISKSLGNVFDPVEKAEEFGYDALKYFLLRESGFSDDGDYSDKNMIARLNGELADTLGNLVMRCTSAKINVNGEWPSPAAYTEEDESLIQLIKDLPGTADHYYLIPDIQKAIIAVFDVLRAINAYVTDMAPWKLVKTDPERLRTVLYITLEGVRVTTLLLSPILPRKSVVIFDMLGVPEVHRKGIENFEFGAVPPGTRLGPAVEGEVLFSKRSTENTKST

Q: For `O=S(=O)(c1ccc(Cl)cc1)N1CCN(Cc2nc(O)c3ccc(Cl)cc3n2)CC1`, which IC50 [1] is on record?
A: > 80 µM (inactive)

Q: For `O=C(CNc1ccc(Cl)cc1)NNC(=S)NCc1ccccc1`, which IC50 [2] is on record?
A: > 122 µM (inactive)

Q: With `O=C(CCc1nc(O)c2c3c(sc2n1)CCCC3)NCC(=O)Nc1ccccc1Br` as the molecule, how does the AC50 [3] read?
A: 26.8 µM (active)

Q: Which IC50 [2] does the source give for `Cc1c(Cl)c(C(=O)NN=C(S)Nc2ccc(F)cc2)nn1C` here?
A: > 122 µM (inactive)

Q: What does the source list for `CC(C)(C)OC(=O)N1CCC(C(=O)Nc2ccc3c(c2)CCC3)CC1`?
A: IC50 [4]: > 67.5 µM (inactive); IC50 [5]: > 67.5 µM (inactive)

Q: For `O=C1C=C(c2ccc3ncccc3c2)C[C@@H](c2ccc(Cl)cc2)C1`, which IC50 [1] is on record?
A: > 80 µM (inactive)

Q: What does the source list for `O=C(O)c1ccc(Nc2nc3ccccc3nc2NS(=O)(=O)c2ccc(F)cc2)cc1`?
A: AC50 [6]: > 100 µM (inactive); AC50 [7]: 62.1 µM (active); IC50 [8]: 24.9 µM (active)

Q: What does the source list for `O=C(NO)c1ccc(OC(F)F)cc1`?
A: IC50 [9]: 40.2 µM (inactive); AC50 [6]: 4.38 µM (active); IC50 [10]: 37 µM (inactive); IC50 [11]: 36.5 µM (inactive); IC50 [12]: 29.5 µM (inactive)

Q: For `CC(NC(=O)c1ccc2[nH]cnc2c1)c1ccccc1` (configuration not stated), which AC50 [7] is on record?
A: 22.7 µM (active)

Q: Which IC50 [13] does the source give for `N#Cc1ccc(C(C(=O)NCc2ccccc2)n2c(=O)c(-c3ccco3)nc3ccccc32)cc1` (configuration not stated) here?
A: 1.3 µM (active)

Q: Which IC50 [14] does the source give for `N#Cc1ccc(-c2nc3ccc(Br)cn3c2Cc2ccccc2C(F)(F)F)cc1` here?
A: 13.1 µM (active)

Q: And the IC50 [15]?
A: 11.4 µM (active)

Q: Which IC50 [13] does the source give for `COc1ccc(C(C(=O)NC(C)(C)C)n2c(=O)c(-c3ccco3)nc3ccccc32)cc1` (configuration not stated) here?
A: 1.78 µM (active)

Q: Which results are given for `COc1cccc(-c2nc3nc(C)cc(C)n3c2Nc2c(C)cccc2C)c1`?
A: IC50 [14]: 28.5 µM (inactive); IC50 [15]: 15.4 µM (active)

Q: For `Cc1cc(Nc2cccc(C(F)(F)F)c2)cc(=O)n1-c1cccc(C(F)(F)F)c1`, which AC50 [16] is on record?
A: 9.49 µM (active)

Q: And the AC50 [17]?
A: 1.85 µM (active)

Q: For `C[C@H](CO)N1C[C@H](C)[C@H](CN(C)S(=O)(=O)c2ccc(Cl)cc2)Oc2ccc(NC(=O)Nc3ccc4c(c3)OCO4)cc2C1=O`, which AC50 [16] is on record?
A: 13.7 µM (active)

Q: And the AC50 [18]?
A: 2.11 µM (active)

Q: What about the AC50 [17] of the same molecule?
A: 6.18 µM (active)

Q: With `CC(C)Nc1ncnc2c1ncn2[C@H]1CN(Cc2ccc(Cl)cc2)C[C@@H](CO)O1` as the molecule, how does the IC50 [1] read?
A: > 80 µM (inactive)

Q: For `COc1cc(OC)c(OC)cc1/C=N/Nc1nc2ccccc2[nH]1`, which IC50 [19] is on record?
A: 83.3 µM (inactive)

Q: And the IC50 [20]?
A: 119 µM (inactive)

Q: With `CC(C)C(NC(=O)C(C(C)C)N(C)C)C(=O)N(C)C(C(=O)N1CCCC1C(=O)N1CCCC1C(=O)NCc1ccccc1)C(C)C` (configuration not stated) (ξNMe2Val-V[NMeV]PP-NHBn; configuration not given here) as the molecule, how does the IC50 [4] read?
A: > 67.5 µM (inactive)

Q: And the IC50 [5]?
A: > 67.5 µM (inactive)
